In patent publication US11484511B2, “Pharmaceutical composition comprising THA as effective ingredient for treatment of prostate cancer” (KOREA UNITED PHARM. INC., priority 2018, dated 2022):
Entries after “also recorded” stand apart in the source; their conditions may differ.

Assays:
Format in all cases: cell-based
[1] = test system: C4-2 cells; experiment: Real-time cell proliferation analysis (INCUCYTE ZOOM); settings: THA 3, 10, 30 μM, BI2536 1-100 nM, PPG 3-100 μM, 68 hours
Protocol: (§1) LnCaP cells, PC3 cells which are androgen receptor (AR)-negative cells, and C4-2 cells showing castration resistance were cultured using an RPMI-1640 medium (Hyclone, Logan, Utah, USA) containing 10% fetal bovine serum (FBS) (Hyclone, Logan, Utah, USA) and 1% penicillin/streptomycin.
(§2) In order to measure cell proliferation, cells were plated onto a 96-well dish (5×10^3 cells/well). After treatment with a drug, the number of live cells was measured at 4-hour intervals using an INCUCYTE™ ZOOM Live Cell Analysis System (Essen Bioscience, Ann Arbor, Mich., USA).
(§3) In order to comparatively observe the cell proliferation inhibitory effects after treatment of prostate cancer cells with THA, a 1 M solution was prepared by diluting 0.168 g of THA (molecular weight: 168.15) with 1 ml DMSO. After the prostate cancer cell lines (LnCaP, PC3, and C4-2) cultured by the method in Example 1-2 were treated with THA (3, 10, and 30 μM), PLK1 inhibitor BI2536 (1, 5, 10, 50, and 100 nM), and purpurogallin (PPG) (3, 10, 30, and 100 μM), the cell proliferation inhibitory effects were comparatively observed by the real-time cell proliferation analysis method for 68 hours according to Example 1-4 during.

[2] = test system: PC3 cells; experiment: as above; settings: THA 3, 10, 30 μM, BI2536 1-100 nM, PPG 3-100 μM, 68 hours
Protocol: as §1, §2, §3

[3] = test system: C4-2 cells; experiment: Cleaved caspase-3 (CC3) expression by immunochemical analysis; settings: for induction of apoptosis: 30 μM THA or 5 nM BI2536, 48 hours
Protocol: (§4) Sodium dodecyl sulfate-polyacrylamide gel electrophoresis (SDS-PAGE) was performed using a gel electrophoresis apparatus (Mighty Small SE250, Hoefer Scientific Instruments, San Francisco). After a cell lysate fraction was diluted in a sample dilution buffer solution [63 mM Tris (pH 6.8), 10% glycerol, 2% SDS, 0.0013% bromophenol blue, and 5% β-mercaptoethanol], electrophoresis was performed in an electrode buffer solution (15 g of Tris, 72 g of glycerin, and 5 g of SDS were contained in a 1 L solution) using 8 to 12% gel. Proteins were electrophoretically transferred from the gel to a nitrocellulose membrane at 190 mAmps for 70 minutes in a transfer buffer solution (25 mM Tris, 192 mM glycerin, and 20% v/v methanol (pH 8.3)) using a transfer electrophoresis apparatus. After a primary antibody was reacted with the nitrocellulose membrane, a secondary antibody was reacted with horseradish peroxidase-conjugated goat anti-rabbit IgG and horseradish peroxidase-conjugated goat anti-mouse IgG for 6 hours, and color was developed using an ECL chemiluminescence system (Amersham, Gaithersberg, Mass.).
(§5) Further, the degree of apoptosis was observed by confirming the changes in expression of cleaved caspase-3 (CC3) which is an active-type caspase-3 during apoptosis, and first, the C4-2 and PC3 cells cultured by the method in Example 1-2 were plated onto a 6-well plate, and then cultured during 12 hr. And then the cells were treated with 30 μM THA or 5 nM BI2536 for 48 hours. Thereafter, the changes in expression of cleaved caspase-3 (CC3) were observed by the immunochemical analysis method in Example 1-3.

[4] = test system: PC3 cells; experiment: as above; settings: for induction of apoptosis: 30 μM THA or 5 nM BI2536, 48 hours
Protocol: as §4, §5

[5] = test system: PC3 cells; experiment: Cell cycle analysis (PI / PHH3 flow cytometry); settings: 30 μM THA, 5 nM BI2536, 24 hours
Protocol: In order to measure the cell cycle distribution, cells were plated onto a 100 mm dish (5×10^5 cells/well). The cells were fixed with 4° C. PBS, refrigerated in 70% EtOH at 4° C., and cultured for 24 hours. After the 70% EtOH was removed, the PHH3 antibody was treated with a lysing solution composed of 1% bovine serum albumin/0.5% Triton X-100/0.2 mg/ml EDTA to a final concentration of 1:50, and then stained at 37° C. for 15 minutes. Thereafter, the lysing solution was removed, and staining was performed again at 37° C. for 15 minutes using propidium iodide (PI)/Triton X-100/DNAse-free RNAse A. Next, 20,000 cells per experimental group were analyzed using the FACSCALIBUR™ (flow cytometer from BD Biosciences, CA, USA) machine.
PLK1 is a representative G2/M cell cycle regulatory […], and in order to confirm the effect of blocking the cell cycle of prostate cancer cells according to the treatment with THA, the PC3 cells cultured by the method in Example 1-2 were plated onto a 6-well plate, and then 12 hours later, the cells were treated with 30 μM THA and 5 nM BI2536 for 24 hours. Thereafter, changes in the cell distribution of each of the sub-G1, S, and G2/M phases and the proportion of PH3-positive cells (M phase marker) were observed by the method in Example 1-6.

[6] = test system: LnCaP cells; experiment: Real-time cell proliferation analysis (INCUCYTE ZOOM); settings: PPG 3-100 μM, 68 hours
Protocol: as §1, §2, §3

[7] = test system: C4-2 cells; experiment: Real-time apoptosis analysis (caspase-3/7 fluorescence substrate); settings: 30 μM THA, 48 hours
Protocol: (§6) In order to measure apoptosis, cells were plated onto a 96-well dish (5×10^3 cells/well). The INCUCYTE™ ZOOM 96-well Caspase-3/7 apoptosis assay reagent (Essen Bioscience, Ann Arbor, Mich., USA) was pretreated for 3 hours, a drug was treated, and then the fluorescence expression level was measured at 4-hour intervals using an INCUCYTE™ ZOOM Live Cell Analysis System (Essen Bioscience, Ann Arbor, Mich., USA).

[8] = test system: PC3 cells; experiment: as above; settings: 30 μM THA, 48 hours
Protocol: as §6

Row | Structure (SMILES) | cell proliferation inhibitory effect [1] | cell proliferation inhibitory effect [2] | induction of apoptosis [3] | induction of apoptosis [4] | PHH3-positive cells (M phase marker) compared to the control [5] | cell cycle progression [5] | cell proliferation inhibitory activity [6] | apoptotic index (caspase-3/7 activity) [7] | apoptotic index (caspase-3/7 activity) [8] | expression level of cleaved caspase-3 ([3]; 30 μM THA, 48 hours) | expression level of cleaved caspase-3 ([4]; 30 μM THA, 48 hours)
1 | CC[C@@H]1C(=O)N(C)c2cnc(Nc3ccc(C(=O)NC4CCN(C)CC4)cc3OC)nc2N1C1CCCC1 [BI2536, reference compound] | selectively inhibits cell proliferation | selectively inhibits cell proliferation | apoptosis is effectively induced | apoptosis is effectively induced | a significant increase | inhibition of G2/M phase progression is induced |  |  |  |  | 
2 | O=c1c(O)cccc2cc(O)c(O)c(O)c12 [Purpurogallin, purpurogallin, reference compound] | a cell growth inhibitory effect that appeared to be non-selective only at a concentration of 100 uM | limited cell proliferation inhibitory activity |  |  |  |  | limited cell proliferation inhibitory activity |  |  |  | 
3 | CC(=O)c1c(O)cc(O)cc1O [THA, 2,4,6-trihydroxyacetophenone] | the same cell proliferation inhibitory effects as BI2536; also recorded: selectively inhibits cell proliferation | the same cell proliferation inhibitory effects as BI2536; also recorded: selectively inhibits cell proliferation | apoptosis is effectively induced | apoptosis is effectively induced | a significant increase | selectively blocked cell cycle progression at the G2/M phase |  | significantly increased the apoptotic index | significantly increased the apoptotic index | increased | increased
